Measurements as given in ChEMBL document CHEMBL3351417, “Thiophene-3-carboxamide analogue of annonaceous acetogenins as antitumor drug lead” (Eur J Med Chem, 2014).

Key:
[1] = Growth inhibition of human HBC4 cells after 48 hrs by sulforhodamine B colorimetric assay; type: functional; settings: HBC4, 48 h
U-251 = assay: Growth inhibition of human U251 cells after 48 hrs by sulforhodamine B colorimetric assay; type: functional; settings: U-251, 48 h
SF-268 = assay: Growth inhibition of human SF268 cells after 48 hrs by sulforhodamine B colorimetric assay; type: functional; settings: SF-268, 48 h
[2] = Growth inhibition of human SF295 cells after 48 hrs by sulforhodamine B colorimetric assay; type: functional; settings: SF-295, 48 h
SNB-75 = assay: Growth inhibition of human SNB75 cells after 48 hrs by sulforhodamine B colorimetric assay; type: functional; settings: SNB-75, 48 h
[3] = Growth inhibition of human SNB78 cells after 48 hrs by sulforhodamine B colorimetric assay; type: functional; settings: SNB-78, 48 h
[4] = Growth inhibition of human HCC2998 cells after 48 hrs by sulforhodamine B colorimetric assay; type: functional; settings: HCC 2998, 48 h
KM12 = assay: Growth inhibition of human KM12 cells after 48 hrs by sulforhodamine B colorimetric assay; type: functional; settings: KM12, 48 h
HT-29 = assay: Growth inhibition of human HT-29 cells after 48 hrs by sulforhodamine B colorimetric assay; type: functional; settings: HT-29, 48 h
[5] = Growth inhibition of human HCT15 cells after 48 hrs by sulforhodamine B colorimetric assay; type: functional; settings: HCT-15, 48 h
[6] = Growth inhibition of human OVCAR5 cells after 48 hrs by sulforhodamine B colorimetric assay; type: functional; settings: OVCAR-5, 48 h
SK-OV-3 = assay: Growth inhibition of human SKOV3 cells after 48 hrs by sulforhodamine B colorimetric assay; type: functional; settings: SK-OV-3, 48 h
[7] = Growth inhibition of human RXF631L cells after 48 hrs by sulforhodamine B colorimetric assay; type: functional; settings: RXF 631, 48 h
DU-145 = assay: Growth inhibition of human DU145 cells after 48 hrs by sulforhodamine B colorimetric assay; type: functional; settings: DU-145, 48 h
[8] = Toxicity in human NCI-H23 cells xenografted in mouse ip dosed on day 0 and day; type: organism-based; settings: in vivo
[9] = Growth inhibition of human BSY1 cells after 48 hrs by sulforhodamine B colorimetric assay; type: functional; settings: BSY-1, 48 h
[10] = Growth inhibition of human HBC5 cells after 48 hrs by sulforhodamine B colorimetric assay; type: functional; settings: HBC5, 48 h
MCF7 = assay: Growth inhibition of human MCF7 cells after 48 hrs by sulforhodamine B colorimetric assay; type: functional; settings: MCF7, 48 h
MDA-MB-231 = assay: Growth inhibition of human MDA-MB-231 cells after 48 hrs by sulforhodamine B colorimetric assay; type: functional; settings: MDA-MB-231, 48 h
[11] = Growth inhibition of human SF539 cells after 48 hrs by sulforhodamine B colorimetric assay; type: functional; settings: SF-539, 48 h
[12] = Growth inhibition of human HCT116 cells after 48 hrs by sulforhodamine B colorimetric assay; type: functional; settings: HCT-116, 48 h
NCI-H23 = assay: Growth inhibition of human NCI-H23 cells after 48 hrs by sulforhodamine B colorimetric assay; type: functional; settings: NCI-H23, 48 h
NCI-H226 = assay: Growth inhibition of human NCI-H226 cells after 48 hrs by sulforhodamine B colorimetric assay; type: functional; settings: NCI-H226, 48 h
NCI-H522 = assay: Growth inhibition of human NCI-H522 cells after 48 hrs by sulforhodamine B colorimetric assay; type: functional; settings: NCI-H522, 48 h
NCI-H460 = assay: Growth inhibition of human NCI-H460 cells after 48 hrs by sulforhodamine B colorimetric assay; type: functional; settings: NCI-H460, 48 h
A549 = assay: Growth inhibition of human A549 cells after 48 hrs by sulforhodamine B colorimetric assay; type: functional; settings: A549, 48 h
[13] = Growth inhibition of human DMS273 cells after 48 hrs by sulforhodamine B colorimetric assay; type: functional; settings: DMS-273, 48 h
[14] = Growth inhibition of human DMS114 cells after 48 hrs by sulforhodamine B colorimetric assay; type: functional; settings: DMS-114, 48 h
[15] = Growth inhibition of human LOXIMVI cells after 48 hrs by sulforhodamine B colorimetric assay; type: functional; settings: LOX IMVI
[16] = Growth inhibition of human OVCAR3 cells after 48 hrs by sulforhodamine B colorimetric assay; type: functional; settings: OVCAR-3, 48 h
[17] = Growth inhibition of human OVCAR4 cells after 48 hrs by sulforhodamine B colorimetric assay; type: functional; settings: OVCAR-4, 48 h
[18] = Growth inhibition of human OVCAR8 cells after 48 hrs by sulforhodamine B colorimetric assay; type: functional; settings: OVCAR-8, 48 h
ACHN = assay: Growth inhibition of human ACHN cells after 48 hrs by sulforhodamine B colorimetric assay; type: functional
St-4 = assay: Growth inhibition of human St-4 cells after 48 hrs by sulforhodamine B colorimetric assay; type: functional; settings: St-4, 48 h
[19] = Growth inhibition of human MKN1 cells after 48 hrs by sulforhodamine B colorimetric assay; type: functional; settings: MKN-1, 48 h
[20] = Growth inhibition of human MKN7 cells after 48 hrs by sulforhodamine B colorimetric assay; type: functional; settings: MKN-7, 48 h
[21] = Growth inhibition of human MKN28 cells after 48 hrs by sulforhodamine B colorimetric assay; type: functional; settings: MKN-28, 48 h
[22] = Growth inhibition of human MKN45 cells after 48 hrs by sulforhodamine B colorimetric assay; type: functional; settings: MKN-45, 48 h
[23] = Growth inhibition of human MKN74 cells after 48 hrs by sulforhodamine B colorimetric assay; type: functional; settings: MKN-74, 48 h
[24] = Growth inhibition of human PC3 cells after 48 hrs by sulforhodamine B colorimetric assay; type: functional; settings: PC-3, 48 h

GI50 (MDA-MB-231)	GI50 (NCI-H226)	SMILES	GI50 [1]	GI50 (U-251)	GI50 (SF-268)	GI50 [2]	GI50 (SNB-75)	GI50 [3]	GI50 [4]	GI50 (KM12)	GI50 (HT-29)	GI50 [5]	GI50 [6]	GI50 (SK-OV-3)	GI50 [7]	GI50 (DU-145)	GI50 [9]	GI50 [10]	GI50 [11]	GI50 [12]	other results
–	–	CCCCCCCCCCCC[C@@H](O)[C@H]1CC[C@H]([C@H](O)CCCCCCCCCCNC(=O)c2ccnn2C)O1	> 100 µM	> 100 µM	> 100 µM	10 µM	50.1 µM	> 100 µM	> 100 µM	> 100 µM	> 100 µM	> 100 µM	> 100 µM	> 100 µM	> 100 µM	> 100 µM	–	–	–	–	MTD [8]: 5 mg/kg
2.57 µM	2.09 µM	CCCCCCCCCCCC[C@@H](O)[C@H]1CC[C@H]([C@H](O)CCCCCCCCCCNC(=O)c2cccs2)O1	3.39 µM	2 µM	3.98 µM	1.41 µM	3.39 µM	2.29 µM	2 µM	3.09 µM	2.19 µM	5.75 µM	2.51 µM	28.8 µM	3.24 µM	2.69 µM	18.2 µM	3.24 µM	17 µM	1.29 µM	GI50 (MCF7): 2.19 µM; GI50 (NCI-H23): 0.676 µM; GI50 (NCI-H522): 1.1 µM; GI50 (NCI-H460): 2.29 µM; GI50 (A549): 3.72 µM; GI50 [13]: 1.82 µM; GI50 [14]: 0.282 µM; GI50 [15]: 1.29 µM; GI50 [16]: 0.0427 µM; GI50 [17]: 1.82 µM; GI50 [18]: 3.02 µM; GI50 (ACHN): 2.57 µM; GI50 (St-4): 1.82 µM; GI50 [19]: 1.82 µM; GI50 [20]: 0.269 µM; GI50 [21]: 0.363 µM; GI50 [22]: 3.31 µM; GI50 [23]: 1.51 µM; GI50 [24]: 2.29 µM
> 100 µM	97.7 µM	CCCCCCCCCCCC[C@@H](O)[C@H]1CC[C@H]([C@H](O)CCCCCCCCCCNC(=O)c2ccco2)O1	> 100 µM	> 100 µM	> 100 µM	33.9 µM	> 100 µM	> 100 µM	> 100 µM	> 100 µM	> 100 µM	> 100 µM	> 100 µM	> 100 µM	> 100 µM	> 100 µM	0.49 µM	> 100 µM	81.3 µM	7.76 µM	GI50 (MCF7): > 100 µM; GI50 (NCI-H23): 12.9 µM; GI50 (NCI-H522): 18.2 µM; GI50 (NCI-H460): 18.2 µM; GI50 (A549): > 100 µM; GI50 [13]: 39.8 µM; GI50 [14]: 0.282 µM; GI50 [15]: 17 µM; GI50 [16]: > 100 µM; GI50 [17]: 15.8 µM; GI50 [18]: > 100 µM; GI50 (ACHN): > 100 µM; GI50 (St-4): > 100 µM; GI50 [19]: > 100 µM; GI50 [20]: 0.832 µM; GI50 [21]: 0.617 µM; GI50 [22]: > 100 µM; GI50 [23]: 1.7 µM; GI50 [24]: > 100 µM

SMILES	GI50 (MDA-MB-231)	GI50 (NCI-H226)	GI50 [1]	GI50 (U-251)	GI50 (SF-268)	GI50 [2]	GI50 (SNB-75)	GI50 [3]	GI50 [4]	GI50 (KM12)	GI50 (HT-29)	GI50 [5]	GI50 [6]	GI50 (SK-OV-3)	GI50 [7]	GI50 (DU-145)	GI50 [9]	GI50 [10]	GI50 [11]	GI50 [12]	other results
CCCCCCCCCCCC[C@@H](O)[C@H]1CC[C@H]([C@H](O)CCCCCCCCCCCCC2=C[C@H](C)OC2=O)O1 [REL-SOLAMIN]	> 100 µM	> 100 µM	> 100 µM	> 100 µM	> 100 µM	39.8 µM	> 100 µM	> 100 µM	> 100 µM	> 100 µM	> 100 µM	> 100 µM	> 100 µM	> 100 µM	> 100 µM	> 100 µM	> 100 µM	> 100 µM	> 100 µM	> 100 µM	GI50 (NCI-H460): > 100 µM; GI50 (A549): > 100 µM; GI50 [13]: > 100 µM; GI50 [16]: > 100 µM; GI50 [17]: > 100 µM; GI50 [18]: > 100 µM; GI50 (ACHN): > 100 µM; GI50 (St-4): > 100 µM; GI50 [19]: > 100 µM; GI50 [22]: > 100 µM; GI50 [23]: > 100 µM; GI50 [24]: > 100 µM
